Data taken from patent US20260207570A1, “OPTIMIZED DOSING OF LERIGLITAZONE” (MINORYX THERAPEUTICS S.L., priority 2022, published 2026).

Experiments:
[1] = molecular target: T1, CYP2C8 (Homo sapiens, UniProt P10632); experiment: Metabolism kinetics with recombinant CYP2C8; type: in vitro ADME; conditions: therapeutic range, up to 30 μM initial incubation concentration
T1 sequence (P10632 1-490): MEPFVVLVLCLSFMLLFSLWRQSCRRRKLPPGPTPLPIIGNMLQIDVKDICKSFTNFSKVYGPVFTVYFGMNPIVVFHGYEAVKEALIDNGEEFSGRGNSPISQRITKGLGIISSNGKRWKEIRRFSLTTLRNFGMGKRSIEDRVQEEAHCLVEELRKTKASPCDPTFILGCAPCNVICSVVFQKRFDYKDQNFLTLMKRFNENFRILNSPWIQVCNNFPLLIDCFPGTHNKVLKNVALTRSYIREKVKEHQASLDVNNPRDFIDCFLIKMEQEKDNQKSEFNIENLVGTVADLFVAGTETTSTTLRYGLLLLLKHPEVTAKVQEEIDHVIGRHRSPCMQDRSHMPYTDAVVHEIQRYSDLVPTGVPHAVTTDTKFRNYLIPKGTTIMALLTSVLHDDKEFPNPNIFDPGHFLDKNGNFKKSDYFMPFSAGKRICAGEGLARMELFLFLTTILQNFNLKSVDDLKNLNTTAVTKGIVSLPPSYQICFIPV
From the text: (§1) CYP2C8 and CYP3A4 were identified in vitro as the major contributing enzymes of leriglitazone with CYP2C8 mostly responsible for the formation of the main metabolite M3. Kinetic parameters of human CYP2C8 and CYP3A4 mediated metabolism of leriglitazone were studied in in vitro studies using recombinant CYP3A4 and CYP2C8 enzymes (ADMESCOPE, Finland). […] As the disappearance of leriglitazone was very slow especially at high initial concentrations, the accuracy of the fit was not as good as based on M3 formation. […] Thus, it was not possible to fit the kinetic parameters Km and Vmax.

[2] = Phase 1 safety and tolerability (treatment-emergent adverse events); type: in vivo, human
Description: Study design: A phase 1, randomized, double blind, placebo-controlled, single-center clinical study in 33 male healthy volunteers (HV) (19-54 years, 63.2-95.7 Kg) was conducted with leriglitazone HCl and divided in two parts: a single ascending dose (SAD) with three dose levels (30, 90 and 270 mg) in fasted conditions, followed with two dose levels (90 and 270 mg) in fed conditions; a multiple ascending dose (MAD) with a double-blind, parallel-design with two dose levels (135 and 270 mg) for 8 days and a separate cohort of subjects in an open-label parallel design with two dose levels (135 and 270 mg) including cerebrospinal fluid (CSF) collection on day 8. In the fasted conditions a fasting period of at least 4 hours was required before obtaining plasma samples. The food effect (FE) was assessed by comparing fasted with fed conditions (dosing after a high-fat breakfast per FDA definition with a calculated caloric content of 918 kcal). In the MAD part (fed) the medication was taken before a normal breakfast. Leriglitazone HCl was supplied by ChemConnection and an oral suspension of leriglitazone (20% w/v kleptose, 2% ethanol in 100 mM phosphate buffer pH=7.8) at 6 mg/ml was used in the study. Safety: Safety and tolerability assessments consisted of adverse events (AEs), clinical laboratory, vital signs, 12-lead electrocardiogram (ECG), and physical examination.

[3] = molecular target: CYP3A4 (Homo sapiens, UniProt P08684); experiment: Metabolism kinetics with recombinant CYP3A4; type: in vitro ADME; parameters: purchased ADMESCOPE, Finland; conditions: used initial concentrations; Km and Vmax could not be fitted
Sequence of CYP3A4 (P08684 whole entry): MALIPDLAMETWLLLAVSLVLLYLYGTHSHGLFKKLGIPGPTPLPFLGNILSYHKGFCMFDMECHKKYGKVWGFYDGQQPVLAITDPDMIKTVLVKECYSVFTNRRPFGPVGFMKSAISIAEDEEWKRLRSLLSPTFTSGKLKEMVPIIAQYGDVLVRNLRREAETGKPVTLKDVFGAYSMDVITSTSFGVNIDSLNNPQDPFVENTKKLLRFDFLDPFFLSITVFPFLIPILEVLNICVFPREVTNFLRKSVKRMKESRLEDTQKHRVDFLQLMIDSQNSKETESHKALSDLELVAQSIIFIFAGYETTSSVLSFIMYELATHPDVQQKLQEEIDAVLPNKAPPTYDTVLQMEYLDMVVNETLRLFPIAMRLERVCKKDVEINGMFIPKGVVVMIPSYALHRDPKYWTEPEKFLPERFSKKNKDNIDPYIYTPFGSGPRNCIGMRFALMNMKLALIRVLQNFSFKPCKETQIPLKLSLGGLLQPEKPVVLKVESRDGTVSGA
From the text: as §1

[4] = Single dose neuro-pk study in rats; type: in vivo; conditions: rat
Description: The ratio of unbound leriglitazone concentration in brain to unbound concentration in plasma (Kpu,u; Cb,u/Cp,u) was calculated dividing the unbound CSF Cmax by the unbound plasma Cmax. Fractions unbound in plasma (fu,p) to obtain the unbound Cmax values were already reported. Rodriguez-Pascau, L. et al., Sci. Transl. Med. 13, eabc0555 (2021).
In a single dose neuro-pk study in rats, at the efficacious dose of 17 mg/kg, the unbound brain concentration of leriglitazone was 175 ng/ml similar to the measured CSF concentration of 274 ng/ml (FIG. 7). Given the validity of CSF as a surrogate marker for brain unbound concentration was proven in rats, CSF levels of leriglitazone were measured in Phase 1 study and confirmed to be similar as in rodents. Unbound brain to plasma ratio (Kpu,u) of leriglitazone as a measure of brain distribution of free drug was 0.55 in humans and 0.25 in rats (Table 7).

## CC(O)c1ccc(CCOc2ccc(CC3SC(=O)NC3=O)cc2)nc1 (stereo not shown) [Leriglitazone, 5-[[4-[2-[5-(1-hydroxyethyl)pyridin-2-yl]ethoxy]phenyl]methyl]-1,3-thiazolidine-2,4-dione]
[1]
  contribution of CYP2C8, fraction metabolized: around 70%
[2]; 135 mg, N = 9
  Gastrointestinal disorders: E: 2
  Gastrointestinal disorders: n (%): 1 (11)
  General disorders and administration site conditions: E: 1
  General disorders and administration site conditions: n (%): 1 (11)
  Metabolism and nutrition disorders: E: 1
  Metabolism and nutrition disorders: n (%): 1 (11)
  Musculoskeletal and connective tissue disorders: E: 3
  Musculoskeletal and connective tissue disorders: n (%): 3 (33)
  Nervous system disorders: E: 5
  Nervous system disorders: n (%): 3 (33)
  Renal and urinary disorders: E: 1
  Renal and urinary disorders: n (%): 1 (11)
  TEAEs Total: E: 13
  TEAEs Total: n (%): 5 (56)
[2]; 270 mg, N = 8
  Eye disorders: E: 2
  Eye disorders: n (%): 1 (13)
  Gastrointestinal disorders: E: 4
  Gastrointestinal disorders: n (%): 3 (38)
  General disorders and administration site conditions: E: 1
  General disorders and administration site conditions: n (%): 1 (13)
  Infections and infestations: E: 2
  Infections and infestations: n (%): 2 (25)
  Musculoskeletal and connective tissue disorders: E: 1
  Musculoskeletal and connective tissue disorders: n (%): 1 (13)
  Nervous system disorders: E: 3
  Nervous system disorders: n (%): 3 (38)
  Respiratory, thoracic and mediastinal disorders: E: 3
  Respiratory, thoracic and mediastinal disorders: n (%): 3 (38)
  TEAEs Total: E: 16
  TEAEs Total: n (%): 8 (100)
[3]
  saturation of metabolism by recombinant CYP3A4: did not saturate
[4]; CSF and plasma (unbound), 17 mg/kg, unbound CSF Cmax / unbound plasma Cmax, read-out: Kpu, u based on CSF
  Kp: 0.25
[4]; plasma, 17 mg/kg single dose, read-out: Total plasma AUC
  AUC: 102 µg·h/mL
[4]; plasma, 17 mg/kg single dose, read-out: Total plasma Cmax
  Cmax: 21100 ng/mL
[4]; 17 mg/kg single dose
  CSF Cmax: 274 ng/mL
  Total brain AUC: 6.582 µg·h/mL
  Total brain Cmax: 1337.6 ng/mL
[4]; 17 mg/kg, unbound CSF Cmax / unbound plasma Cmax
  Kpu, u based on CSF: 0,25
[4]; efficacious dose of 17 mg/kg, single dose
  unbound brain concentration: 175 ng/mL
